Consider two compounds from article PMC12081029, “Structural, Spectroscopic, and Docking Analysis of N,O‐Donor Ligand Metal Complex Nanoparticles With Hypolipidemic Effects via Lipoprotein Lipase Activation in High‐Fat Diet Mice” (Chemistry & Biodiversity, 2024).

Values joined by “and” are separate entries in the source; they are usually repeats but may differ in a detail not shown here. Equal entries are not always repeated. Where two headings read alike, the source gives them in different places.

Data set [1] has as its system Staphylococcus aureus. The settings on record: cited from earlier work.
In data set [2] the test system is Bacillus subtilis. Conditions: cited from earlier work.
In data set [3] the test system is Escherichia coli. The settings on record: cited from earlier work.
Data set [4] relates to Salmonella typhi. Set-up: method as in PMID 16740311. The settings on record: cited from earlier work.
Data set [5] concerns Aspergillus niger. Set-up: method as in PMID 16740311. Conditions: cited from earlier work.
Data set [6] has as its system Salmonella typhi. In words: Agar diffusion, inhibition zone (ZOI) and activity index. The class given is cell-based. Conditions: Salmonella typhi. A general note: Agar diffusion results depend on both activity and mobility in agar.
Data set [7] has as its system Salmonella typhi. In words: MIC / MBC determination. The class given is cell-based. Conditions: Salmonella typhi.
Data set [8] has as its system lipoprotein lipase (L. lipase). As to the kind of experiment: Serum L. lipase activity in high-fat diet mice (fluorometric kit). The class given is in vivo. Conditions: HFD C57BL/6 mice; for L. lipase (serum enzyme activity): 4 mg kg^−1 body weight in DMF, 3 months, mean ± SD. As for the experimental part: (§1) This study employed 8‐week‐old male C57BL/6 mice of matched weight (around 20–25 g) from an inbred “genetically identical” strain. The mice were purchased from the National Research Center's Animal House. Then, they were subdivided into five groups, each group containing eight mice; four groups were treated with CETZ.2HCl (antihistamine drug) and its metal complexes, whereas one group was left untreated and classified as a control group. Animals were housed in modular plastic veterinary cages at air‐conditioned room, under pathogen‐free conditions. Mice were fed HFD, which consisted of carbs 42.0%, fat 23.0%, protein 17.0%, fiber 3.0%, minerals 5.0%, and moisture 10.0% for 3 months, together with administration of either CETZ.2HCl or its metal complexes (4 mg kg ^−1 body weight) in DMF [37]. Experiments were performed in accordance with the regulations of the Animal Care and Use Committee of the College of Veterinary Medicine, Mansoura University (MU‐ACUC), Egypt; MU‐ACUC (PHARM.R.24.02.30), complied with “Guide for the Care and Use of Laboratory Animals” (National Research Council publication 8th ed., USA, 2011).
(§2) Specimens of blood were gathered from the retro‐orbital sinus, under halothane (1.5 percent v/v halothane in oxygen) anesthesia via inhalation. The collected blood was allowed to clot, by centrifugation at 1600 rpm for 20 min, to obtain serum. Isolated sera were maintained at −80°C until tests of liver function in addition to lipid profiles were performed. For estimation of L. lipase activity, fluorometric L. lipase activity assay kit was utilized following the manufacturer's protocol (Cat. No. STA‐610, Cell BIOLABS INC., San Diego, USA). Serum T. chol. LDL, HDL, TG, ALT (alanine aminotransferase), AST (aspartate aminotransferase), and ALP (alkaline phosphatase) were examined with Roche kits using COBAS Integra 400 and COBAS Integra‐400 plus (Roche Diagnostics Limited, Switzerland).

Data set [9] can be described thus: Serum lipid profile in high-fat diet mice. The class given is in vivo. The settings on record: HFD C57BL/6 mice, 4 mg kg^−1 body weight, 3 months, mean ± SD. As for the experimental part: as §1, §2
A short description of data set [10]: Serum liver function enzymes in high-fat diet mice. The class given is in vivo. Conditions: HFD C57BL/6 mice, 4 mg kg^−1 body weight, 3 months, mean ± SD. The method, then: as §1, §2
For data set [11], the system named is Aspergillus niger. As to the kind of experiment: MIC determination.
Data set [12] deals with Aspergillus terreus. In words: MIC determination.
For data set [13], the system named is Staphylococcus aureus. In words: MIC / MBC determination.
For data set [14], the system named is Bacillus subtilis. In words: MIC / MBC determination.
Data set [15] has as its system Escherichia coli. As to the kind of experiment: MIC / MBC determination.
For data set [16], the system named is Staphylococcus aureus. In words: Agar diffusion, inhibition zone (ZOI) and activity index. The settings on record: Staphylococcus aureus.
The test system of data set [17] is Bacillus subtilis. The data set is described as above. The settings on record: Bacillus subtilis.
The subject of data set [18] is Escherichia coli. Described as above. The settings on record: Escherichia coli.
Data set [19] concerns Aspergillus niger. The description is as above. Conditions: Aspergillus niger.
In data set [20] the test system is Aspergillus terreus. The description is as above.
The mark [21] stands for this setting: Table 9, preceding research ref [68].
The mark [22] stands for this setting: 10^−3 M in DMF, 5 mm holes, 20 h at 37°C.
The mark [23] stands for this setting: ZOI of compound / ZOI of standard (gentamicin) × 100.
Setting [24] is: ZOI of compound / ZOI of standard (ampicillin) × 100.
The mark [25] stands for this setting: 10^−3 M in DMF, 5 mm holes, 7 days at 30°C.
Setting [26] is: ZOI of compound / ZOI of standard (colitrimazole) × 100.

Take `O.O.O=C([O-])COCCN1CCN(C(c2ccccc2)c2ccc(Cl)cc2)CC1.O=[N+]([O-])[O-].[Cu+2].c1ccc(-c2ccccn2)nc1` (centres unmarked) [[(Cu(CETZ)(Bipy)(H2O)2(NO3)]]: the AI is 105.7 with Staphylococcus aureus [1] (Table 9, Staphylococcus aureus ref [68]); 55.3 in the data set on Bacillus subtilis [2] (Table 9, Bacillus subtillis ref [68]); 113.3 in the data set on Escherichia coli [3] (Table 9, Escherichia coli ref [68]); 59.9 in the data set with Salmonella typhi [4] (Table 9, Salmonella typhi ref [68]); 88.89 with Aspergillus niger [5] (Table 9, Aspergillus niger ref [68]). For the same compound, the “Staphylococcus aureus (inhibition zone)” value in the data set on Staphylococcus aureus [1] (setting [21]) is on record as 24 ^+ ^3 ± 0.13. Further, in the data set with Bacillus subtilis [2] (setting [21]), the “Bacillus subtillis (inhibition zone)” value is recorded as 15.7 ^+ ^1 ± 0.001. Also, the “Escherichia coli (inhibition zone)” value with Escherichia coli [3] (setting [21]) is 22.1 ^+ ^2 ± 0.005. The “Salmonella typhi (inhibition zone)” value in the data set with Salmonella typhi [4] (setting [21]) was 12.4 ^+ ^1 ± 0.22. Moreover, the “Aspergillus niger (inhibition zone)” value in the data set on Aspergillus niger [5] (setting [21]) is listed as 17.6 ^+ ^1 ± 0.11.
As to [Zn(CETZ)(Phen)(H2O)2Cl] [complex (2)], the ZOI is given as 18.0 ^+ ^2 ±0.17 mm with Salmonella typhi [6] (setting [22]); 15.2 ^+ ^1 ±0.74 mm in the data set on Staphylococcus aureus [16] (setting [22]); 21.2 ^+ ^2 ±1.04 mm in the data set on Bacillus subtilis [17] (setting [22]); 7.9^NS ±0.34 mm with Escherichia coli [18] (setting [22]); 17.6 ^+ ^1 ±0.43 mm in the data set on Aspergillus niger [19] (setting [25]); 12.0^NS ±1.71 mm in the data set on Aspergillus terreus [20] (setting [25]). Moreover, the AI in the data set with Salmonella typhi [6] (setting [23]) stood at 86.9%; in the data set on Staphylococcus aureus [16] (setting [24]), 66.9%; with Bacillus subtilis [17] (setting [24]), 74.65%; with Escherichia coli [18] (setting [23]), 40.5%; in the data set with Aspergillus niger [19] (setting [26]), 88.88%; in the data set with Aspergillus terreus [20] (setting [26]) it was 68.57%. For the same compound, the MBC against Salmonella typhi [7] is 0.065 ± 0.014 µg/mL; against Staphylococcus aureus [13], 0.057 µg/mL and 0.057 ± 0.002 µg/mL; with Escherichia coli [15] it was 0.063 ± 0.015 µg/mL. The MIC was 0.050 µg/mL and 0.050 ± 0.007 µg/mL in the data set with Salmonella typhi [7]; 0.025 µg/mL and 0.025 ± 0.01 µg/mL against Aspergillus niger [11]; 0.050 µg/mL and 0.050 ± 0.02 µg/mL with Aspergillus terreus [12]; 0.050 µg/mL and 0.050 ± 0.007 µg/mL in the data set on Staphylococcus aureus [13]; 0.050 ± 0.01 µg/mL in the data set with Bacillus subtilis [14]; 0.050 µg/mL and 0.050 ± 0.02 µg/mL against Escherichia coli [15]. Moreover, the “L. lipase (serum enzyme activity)” value in data set [8] is 108.88 U/L; in [8] (listed as Zn-CETZ Complex), 108.88±20.0 U/L. In data set [8] (rounded, 4 mg kg^−1 body weight), the “mean L. lipase activity” value was 108.9 U L^−1. Also, the HDL in data set [9] worked out at 115.75 ± 13.32 mg/dL. This compound also returned an LDL in [9] of 71.63 ± 6.5 mg/dL. The “Total Chol.” value in data set [9] was 155.5 ± 16.01 mg/dL. The Trig in [9] was found to be 70.63 ± 6.05 mg/dL. Besides, in data set [10], the ALP is reported as 49.63 ± 6.16 U L^−1. This compound came in with an ALT in [10] of 164.87 ± 35.27 U L^−1. The compound also displayed an AST in data set [10] of 156.5 ± 16.12 U L^−1.

In general, MBC refers to the lowest tested concentration that kills the bacteria rather than only halting them. Higher therefore signals less potent killing. A word on the MIC: it is the smallest concentration in the dilution series that meets the test's criterion for growth inhibition. Low values mean greater potency, high ones weaker potency.
